Measurements published in ChEMBL document CHEMBL1201862, “PubChem BioAssay data set” (2004).
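Interpolation was linear, between the two tested concentrations surrounding the appropriate level; five concentrations were tested over 48 hours in 96-well plates. GI50: concentration for 50% inhibition of growth.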 The source made the active and inactive calls. Cut-off read from the data, not from the text of the source: active = GI50 up to about 1.1 µM and inactive = higher.

Legend:
Experiment in all cases: NCI anticancer screen, dose series, 48 h
[1] = test system: SK-MEL-5
[2] = test system: Malme-3M
[3] = test system: SK-OV-3
[4] = test system: M14
[5] = test system: 786-0
[6] = test system: NCI-H226
[7] = test system: SF-268
[8] = test system: SN12C
[9] = test system: OVCAR-3
[10] = test system: EKVX
[11] = test system: UACC-62
[12] = test system: MCF7
[13] = test system: OVCAR-5
[14] = test system: OVCAR-8
[15] = test system: MDA-N
[16] = test system: HCT-116
[17] = test system: KM12
[18] = test system: LOX IMVI
[19] = test system: SK-MEL-28
[20] = test system: A549

| Structure (SMILES) | GI50 [1] | GI50 [2] | GI50 [3] | GI50 [4] | GI50 [5] | GI50 [6] | GI50 [7] | GI50 [8] | GI50 [9] | GI50 [10] | GI50 [11] | GI50 [12] | GI50 [13] | GI50 [14] | GI50 [15] | GI50 [16] | GI50 [17] | GI50 [18] | GI50 [19] | GI50 [20] |
| --- | --- | --- | --- | --- | --- | --- | --- | --- | --- | --- | --- | --- | --- | --- | --- | --- | --- | --- | --- | --- |
| CN1CC(c2ccccc2)=CC2=C1C=CC(=N)/C2=N\N | > 100 µM (inactive) | 42.3 µM (inactive) | > 100 µM (inactive) | > 100 µM (inactive) | > 100 µM (inactive) | 6.65 µM (inactive) | > 100 µM (inactive) | > 100 µM (inactive) | > 100 µM (inactive) | > 100 µM (inactive) | > 100 µM (inactive) | > 100 µM (inactive) | > 100 µM (inactive) | > 100 µM (inactive) | > 100 µM (inactive) | > 100 µM (inactive) | > 100 µM (inactive) | > 100 µM (inactive) | > 100 µM (inactive) | > 100 µM (inactive) |
| C[n+]1c2ccccc2c(C(=O)Nc2ccc(S(=O)(=O)Nc3ncccn3)cc2)c2ccccc21 | 58.9 µM (inactive) | > 100 µM (inactive) | > 100 µM (inactive) | > 100 µM (inactive) | > 100 µM (inactive) | 37.4 µM (inactive) | > 100 µM (inactive) | > 100 µM (inactive) | > 100 µM (inactive) | 80.7 µM (inactive) | > 100 µM (inactive) | > 100 µM (inactive) | > 100 µM (inactive) | > 100 µM (inactive) | 47.4 µM (inactive) | 72.6 µM (inactive) | > 100 µM (inactive) | 79.3 µM (inactive) | > 100 µM (inactive) | > 100 µM (inactive) |
| OC(c1cc(-c2ccc(Cl)cc2)nc2ccccc12)C1CCCCN1 (stereo not given) | 2.24 µM (inactive) | 0.873 µM (active) | 2.16 µM (inactive) | 1.77 µM (inactive) | 1.93 µM (inactive) | 4.21 µM (inactive) | 2.02 µM (inactive) | 1.75 µM (inactive) | 2.07 µM (inactive) | 2.14 µM (inactive) | 1.82 µM (inactive) | 1.82 µM (inactive) | 2.16 µM (inactive) | 2.08 µM (inactive) | 1.95 µM (inactive) | 1.92 µM (inactive) | 2.26 µM (inactive) | 0.982 µM (active) | 1.87 µM (inactive) | 1.84 µM (inactive) |
| CN(C)CCn1c(=O)c2ccc(NCCCN(C)CCCNc3ccc4c(=O)n(CCN(C)C)c(=O)n5c6ccc([N+](=O)[O-])cc6c(=O)c3c45)c3c(=O)c4cc([N+](=O)[O-])ccc4n(c1=O)c23 | < 0.0115 µM (active) | 0.0594 µM (active) | < 0.0258 µM (active) | 0.057 µM (active) | < 0.01 µM (active) | < 0.01 µM (active) | 0.0163 µM (active) | < 0.01 µM (active) | < 0.033 µM (active) | 0.0411 µM (active) | < 0.0246 µM (active) | < 0.01 µM (active) | < 0.037 µM (active) | < 0.01 µM (active) | 0.0248 µM (active) | < 0.01 µM (active) | < 0.01 µM (active) | < 0.01 µM (active) | 0.0664 µM (active) | < 0.01 µM (active) |
| NS(=O)(=O)c1ccc(NNc2c3ccccc3nc3ccccc23)cc1 | 12.7 µM (inactive) | 11.2 µM (inactive) | 14.8 µM (inactive) | 11.2 µM (inactive) | 12.6 µM (inactive) | 10.3 µM (inactive) | 12.2 µM (inactive) | 14 µM (inactive) | 10.2 µM (inactive) | 12.5 µM (inactive) | 12.3 µM (inactive) | 10.9 µM (inactive) | 12.8 µM (inactive) | 11.8 µM (inactive) | 12.9 µM (inactive) | 10.8 µM (inactive) | 11.6 µM (inactive) | 7.21 µM (inactive) | 12 µM (inactive) | 15.3 µM (inactive) |
| COC(C(=O)C(O)C(C)O)C1CC2C=C3C=C(OC4CC(OC5CC(O)C(OC)C(C)O5)C(OC(C)=O)C(C)O4)C(C)C(O)=C3C(O)=C2C(=O)C1OC1CC(OC2CC(OC3CC(C)(O)C(OC(=O)C(C)C)C(C)O3)C(O)C(C)O2)C(O)C(C)O1 (stereo not given) | < 0.01 µM (active) | < 0.01 µM (active) | < 0.01 µM (active) | < 0.01 µM (active) | < 0.01 µM (active) | < 0.01 µM (active) | < 0.01 µM (active) | < 0.01 µM (active) | < 0.01 µM (active) | < 0.01 µM (active) | < 0.01 µM (active) | < 0.01 µM (active) | < 0.01 µM (active) | < 0.01 µM (active) | < 0.01 µM (active) | < 0.01 µM (active) | < 0.01 µM (active) | < 0.01 µM (active) | < 0.01 µM (active) | < 0.01 µM (active) |
